Paper PMC4434909, “In vitro properties of designed antimicrobial peptides that exhibit potent antipneumococcal activity and produces synergism in combination with penicillin” (Scientific Reports, 2015)
“Also recorded” adds a separate entry of the source. Where no end group is shown, it is not given here.

Assays:
[1] = test system: penicillin-resistant Streptococcus pneumoniae (PRSP); assay type: cell-based; settings: for MIC, PRSP: MIC range over 20 PRSP isolates, CLSI broth microdilution, CAMHB with 5% laked horse blood, 18–24 hrs 37°C 5% CO2, peptides 1.96–250 μg/ml, three independent experiments; for EP %, PRSP: effective percentage: proportion of isolates inhibited within the MIC range
From the text: (§1) All bacterial strains were obtained from Department of Medical Microbiology, University of Malaya. Clinical isolates were previously obtained from University of Malaya Medical Centre and maintained in the laboratory. Sheep blood agar was used for pneumococcal cultivation purpose. Nutrient agar was used for cultivating E. coli ATCC 25922, S. aureus ATCC 25923, and P. aeruginosa ATCC 15442, Acinetobacter baumanii ATCC 15308, and one clinical isolate for each MRSA, E. cloacae, Citrobacter spp., and K. pneumoniae. For antimicrobial testing, Mueller-Hinton agar (MHA) and cationically-adjusted MHB (CAMHB) were prepared according to the Clinical and Laboratory Standard Institute guidelines. MHA for S. pneumoniae was supplemented with 5% (v/v) defibrinated sheep blood and 5% laked horse blood for CAMHB. All bacterial cultures were stored in multiple vials in brain heart infusion broth supplemented with 10% (v/v) glycerol at −80°C to avoid repeated freeze-thawed cycles on the cells. All freeze-stocked strains were passaged twice prior to experimentation.
(§2) Procedures were performed to determine the MIC of peptides according to the CLSI guidelines[21] against 60 pneumococcal isolates which consisted of 20 isolates each for PRSP, PISP, and PSSP. Strains were grown for 18–24 hrs at 37°C under 5% CO2. Direct suspension of the colonies were made in CAMHB and adjusted to OD625 0.08–0.1 which corresponds to 1 ~ 2 × 10^8 CFU/ml followed by serial ten-fold dilutions to give 1 × 10^6 CFU/ml. Fifty microliters of bacterial suspension was then aliquoted to 96-well round bottom microtiter plates containing equal volume of serially diluted peptides to give final concentrations of peptides encompassing the range of 1.96–250 μg/ml. […] The plates were incubated for 18–24 hrs at 37°C under 5% CO2. MIC was read as the concentration of peptide producing complete inhibition on the visible growth of the test organism. Results were pooled from three independent experiments. MIC range was defined as the range of concentrations where the peptides produce detectable antimicrobial activity. Effective percentage (EP) was the proportion of pneumococcal isolates inhibited within the MIC range. Since the isolates tested were obtained prior to 2008 where major revision in antibiotic susceptibility breakpoints were introduced, thus the pneumococci were defined according to the PEN susceptibility breakpoint (prior 2008) which corresponds to the PEN (oral penicillin V) breakpoint of the revised criteria.

E. cloaceae = assay type: cell-based, E. cloacae; settings: Gram-negative, clinical isolate; broth microdilution, CAMHB, peptides 1.96–250 μg/ml
From the text: as §1, §2
(§3) The broad spectrum antibacterial activity of the peptides against a panel of eight clinically important bacteria was also determined, this includes S. aureus ATCC 25923, E. coli ATCC 25922, P. aeruginosa ATCC 15442, A. baumanii ATCC 15308, and one clinical isolate each for MRSA, E. cloacae, Citrobacter spp., and K. pneumoniae.

K. pneumoniae = assay type: cell-based, Klebsiella pneumoniae; settings: Gram-negative, clinical isolate; broth microdilution, CAMHB, peptides 1.96–250 μg/ml
From the text: as §1, §2, §3

PRSP = assay: Transmission electron microscopy of treated pneumococci; assay type: cell-based, Streptococcus pneumoniae; settings: PRSP 5 × 10^10 CFU/ml, peptides 8 mg/ml, four hours 37°C 5% CO2
Procedure: An overnight culture of PRSP on sheep blood agar was passaged twice and directly suspended in CAMHB. As sample for TEM required high cell density of about 10^8 to 10^10 to be viewable, the bacteria was prepared to 5 × 10^10 CFU/ml and treated with supra-concentration of peptides at 8 mg/ml for four hours at 37°C under 5% CO2. Cells treated with only water was served as the untreated control. For TEM sample preparation, standard protocol provided by the Electron Microscopic Unit, Faculty of Medicine, University of Malaya was followed. The cells were washed twice with CAMHB before overnight fixation in 4% (v/v) glutaraldehyde, two times postfix washes with cacodylate buffer, incubate, two hours incubation with osmium tetroxide buffer (OsO4 1: 1 cacodylate), and washed twice with cacodylate buffer before overnight incubation in the same buffer. Next, the samples were washed twice with double distilled water, 10 min of uranyl acetate incubation, and washed twice with double distilled water before subjected to dehydration by gradual ethanol series: 35% for 10 min, 50% for 10 min, 70% for 10 min, 95% for 15 min, and three rounds of absolute (100%) ethanol for 15 min. Following this, samples were incubated with two rounds of propylene oxide for 15 min, propylene oxide 1:1 Epon for 1 hr, propylene oxide 1:3 Epon for 2 hrs, overnight incubation with Epon, embedded in Agar 100 resin at 37°C for five hours, and maintained in 60°C until viewing. Ultrathin sectioning were prepared on Reichert Ultramicrotome, copper grids 3.05 mm (300 square mesh) (Agar Scientific), and stained with ethanol-based uranyl acetate and lead citrate for 5 min. The prepared samples were viewed with Leo Libra 120 under standard operating conditions.

GLFDKWAWWRWRR-NH2 [DM1]
MIC, PRSP [1]: 31.3 to 125 µg/mL
EP %, PRSP [1]: (100.0) %
MIC, E. cloaceae (E. cloaceae): 125 µg/mL
MIC, K. pneumoniae (K. pneumoniae): >250 µg/mL
changes in pneumococcal cell morphology (TEM) (PRSP): formation of cytoplasmic-containing inclusion bodies

GLFDIWKKLRWRR-NH2 [DM5]
MIC, PRSP [1]: 31.3 to 125 µg/mL
EP %, PRSP [1]: (100.0) %
MIC, E. cloaceae (E. cloaceae): 125 µg/mL
MIC, K. pneumoniae (K. pneumoniae): 250 µg/mL
changes in pneumococcal cell morphology (TEM) (PRSP): Loss of cell wall fragments; also recorded: formation of cytoplasmic-containing inclusion bodies

GLFDIWAWWRWRR-NH2 [DM2]
MIC, PRSP [1]: 15.63 to 250 µg/mL
EP %, PRSP [1]: (100.0) %
MIC, E. cloaceae (E. cloaceae): >250 µg/mL
MIC, K. pneumoniae (K. pneumoniae): >250 µg/mL
changes in pneumococcal cell morphology (TEM) (PRSP): filamentous and stacked at one pole of the cell
difference between lowest and highest detectable MIC against S. pneumoniae: 32 fold

GLFDIWKKWRWRR-NH2 [DM4]
MIC, PRSP [1]: 31.3 to 125 µg/mL
EP %, PRSP [1]: (100.0) %
MIC, E. cloaceae (E. cloaceae): 250 µg/mL
MIC, K. pneumoniae (K. pneumoniae): >250 µg/mL
changes in pneumococcal cell morphology (TEM) (PRSP): Loss of cell wall fragments

GLFDIWKWWRWRR-NH2 [DM3]
MIC, PRSP [1]: 15.63 to 62.5 µg/mL
EP %, PRSP [1]: (100.0) %
MIC, E. cloaceae (E. cloaceae): 31.3 µg/mL
MIC, K. pneumoniae (K. pneumoniae): 62.5 µg/mL
changes in pneumococcal cell morphology (TEM) (PRSP): formation of cytoplasmic-containing inclusion bodies
